The target in this test is T1, hCRTH2 receptor (Homo sapiens, UniProt Q9Y5Y4).
T1 construct: expressed in transfected cells; host or cells: HEK293
T1 sequence (Q9Y5Y4 1-395): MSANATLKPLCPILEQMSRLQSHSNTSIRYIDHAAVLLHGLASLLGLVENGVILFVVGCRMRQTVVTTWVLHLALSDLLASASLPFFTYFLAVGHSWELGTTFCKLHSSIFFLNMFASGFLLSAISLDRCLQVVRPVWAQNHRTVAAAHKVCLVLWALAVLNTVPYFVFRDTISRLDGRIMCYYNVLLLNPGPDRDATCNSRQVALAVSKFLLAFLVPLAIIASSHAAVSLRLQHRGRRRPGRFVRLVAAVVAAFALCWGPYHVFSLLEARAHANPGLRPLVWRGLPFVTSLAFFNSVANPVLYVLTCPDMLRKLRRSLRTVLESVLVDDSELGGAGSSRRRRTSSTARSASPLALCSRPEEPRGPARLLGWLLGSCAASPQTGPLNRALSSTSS
The test is described as follows: Radioligand displacement assay (3H-PGD2) on hCRTH2 receptor membranes. It is filed as binding. Conditions: antagonistic activity, 3H-PGD2 radioligand displacement, HEK293-hCRTH2 membranes.

With `O=C(O)COc1ccc(Cl)cc1C1c2ccc(F)cc2CCN1C(=O)[C@@H]1C[C@H]1c1ccccc1C(F)(F)F` (mixture of isomers) [Example 429], the IC50 was determined as 2.21 nM.

Compound `Cc1ccccc1[C@@H]1C[C@H]1C(=O)N1CCc2cc(F)ccc2C1c1cc(Cl)ccc1OCC(=O)O` (mixture of isomers) [Example 431] came in with an IC50 of 3.56 nM.

With `Cc1ccc(OCC(=O)N2CCc3cc(F)ccc3C2c2cc(Cl)ccc2OCC(=O)O)c(C)n1` (racemic) [Example 432], the IC50 is 40.6 nM.

Regarding `COc1ccc2[nH]cc(CCC(=O)N3CCc4cc(F)ccc4C3c3cc(Cl)ccc3OCC(=O)O)c2c1` (racemic) [Example 433], the IC50 was 90.1 nM.

For the compound `Cn1cc(CCC(=O)N2CCc3cc(F)ccc3C2c2cc(Cl)ccc2OCC(=O)O)c2ccccc21` (racemic) [Example 434], the IC50 came out at 33.3 nM.

On to `Cc1ccccc1CCC(=O)N1CCc2cc(F)ccc2C1c1cc(Cl)ccc1OCC(=O)O` (racemic) [Example 435], for which the IC50 worked out at 46.5 nM.

`O=C(O)COc1ccc(Cl)cc1C1c2ccc(F)cc2CCN1C(=O)CCCc1ccccc1F` (racemic) [Example 436] showed an IC50 of 5.73 nM.

Compound `O=C(O)COc1ccc(Cl)cc1C1c2ccc(F)cc2CCN1C(=O)COCc1ccccc1Cl` (racemic) [Example 437] yielded an IC50 of 5.23 nM.

For the compound `O=C(O)COc1ccc(Cl)cc1C1c2ccc(F)cc2CCN1C(=O)CCOc1ccc(F)cc1` (racemic) [Example 438], the IC50 was 91.1 nM.

For the compound `CN(CC(=O)N1CCc2ccccc2C1c1cc(Cl)ccc1OCC(=O)O)c1ccccc1` (racemic) [Example 439], the IC50 was 379 nM.

As for `O=C(O)COc1ccc(Cl)cc1C1c2ccccc2CCN1C(=O)CCCN1CCCC1=O` (racemic) [Example 440], the IC50 is 55.7 nM.

For the compound `O=C(O)COc1ccc(Cl)cc1C1c2ccccc2CCN1C(=O)CCN1CCc2ccccc21` (racemic) [Example 441], the IC50 is 12.7 nM.

`O=C(O)COc1ccc(Cl)cc1C1c2ccccc2CCN1C(=O)CCN1C(=O)COc2ccc(Cl)cc21` (racemic) [Example 442]: the IC50 turned out to be 347 nM.

Compound `O=C(O)COc1ccc(Cl)cc1C1c2ccccc2CCN1C(=O)CNc1ccccc1` (racemic) [Example 443] gave an IC50 of 855 nM.

With `O=C(O)COc1ccc(Cl)cc1C1c2ccccc2CCN1C(=O)CN1Cc2ccccc2C1` (racemic) [Example 444], the IC50 came out at 667 nM.

In the case of `O=C(O)COc1ccc(Cl)cc1C1c2ccccc2CCN1C(=O)CCN1Cc2ccccc2C1=O` (racemic) [Example 445], the IC50 amounted to 130 nM.

`Cc1cc2ccccc2n1CCC(=O)N1CCc2ccccc2C1c1cc(Cl)ccc1OCC(=O)O` (racemic) [Example 446] came in with an IC50 of 175 nM.

The compound `Cc1cn(CCC(=O)N2CCc3ccccc3C2c2cc(Cl)ccc2OCC(=O)O)c2ccccc12` (racemic) [Example 447] returned an IC50 of 13.9 nM.

In the case of `O=C(O)COc1ccc(Cl)cc1C1c2ccccc2CCN1C(=O)CCn1ncc2ccccc21` (racemic) [Example 448], the IC50 was found to be 35.4 nM.

`O=C(O)COc1ccc(Cl)cc1C1c2ccccc2CCN1C(=O)CCN1CCCc2ccccc21` (racemic) [Example 449] yielded an IC50 of 26.1 nM.

`CC(C)COCCC(=O)N1CCc2ccccc2C1c1cc(Cl)ccc1OCC(=O)O` (racemic) [Example 450] showed an IC50 of 403 nM.

With `O=C(O)COc1ccc(Cl)cc1C1c2ccccc2CCN1C(=O)CCn1cnc2ccccc21` (racemic) [Example 451], the IC50 was 64.1 nM.

Consider `Cc1csc(=O)n1CCC(=O)N1CCc2ccccc2C1c1cc(Cl)ccc1OCC(=O)O` (racemic) [Example 452], for which the IC50 was 500 nM.

`O=C(O)COc1ccc(Cl)cc1C1c2ccccc2CCN1C(=O)CCN1CCSC1=O` (racemic) [Example 453] registered an IC50 of 312 nM.

`Cc1ccc(CCC(=O)N2CCc3ccccc3C2c2cc(Cl)ccc2OCC(=O)O)c(C)c1` (racemic) [Example 454] came in with an IC50 of 69.6 nM.

`Cc1ccc(CCC(=O)N2CCc3ccccc3C2c2cc(Cl)ccc2OCC(=O)O)c(C)n1` (racemic) [Example 455] displayed an IC50 of 200 nM.

`Cc1ccc(OCC(=O)N2CCc3ccccc3C2c2cc(Cl)ccc2OCC(=O)O)c(C)c1` (racemic) [Example 456]: the IC50 came to 43.6 nM.

As for `Cc1c(CCC(=O)N2CCc3ccccc3C2c2cc(Cl)ccc2OCC(=O)O)c2ccccc2n1C` (racemic) [Example 457], the IC50 was 60.8 nM.

In turn, `COc1ccc2c(c1)c(CCC(=O)N1CCc3ccccc3C1c1cc(Cl)ccc1OCC(=O)O)cn2C` (racemic) [Example 458] showed an IC50 of 47.5 nM.

`COc1ccc2c(ccn2CCC(=O)N2CCc3ccccc3C2c2cc(Cl)ccc2OCC(=O)O)c1` (racemic) [Example 459] yielded an IC50 of 160 nM.

`O=C(O)COc1ccc(Cl)cc1C1c2ccccc2CCN1C(=O)CCc1c[nH]c2ccccc12` (racemic) [Example 463] displayed an IC50 of 12.1 nM.

Turning to `CC1(C)CC1C(=O)N1CCc2ccccc2C1c1cc(Cl)ccc1OCC(=O)O` (racemic) [Example 466, (±)-{4-Chloro-2-[2-(2,2-dimethyl-cyclopropanecarbonyl)-1,2,3,4-tetrahydro-isoquinolin-1-yl]-phenoxy}-acetic acid], the IC50 stood at 24.2 nM.

For `Cc1nc(C)c(C2CC2C(=O)N2CCc3ccccc3C2c2cc(Cl)ccc2OCC(=O)O)s1` (racemic) [Example 467, (±)-(4-Chloro-2-{2-[2-(2,4-dimethyl-thiazol-5-yl)-cyclopropanecarbonyl]-1,2,3,4-tetrahydro-isoquinolin-1-yl}-phenoxy)-acetic acid], the IC50 worked out at 396 nM.

As for `Cc1ccc(OCC(=O)N2CCc3ccccc3C2c2cc(Cl)ccc2OCC(=O)O)cn1` (racemic) [Example 468], the IC50 is 759 nM.

In turn, `Cc1ncccc1OCC(=O)N1CCc2ccccc2C1c1cc(Cl)ccc1OCC(=O)O` (racemic) [Example 469] yielded an IC50 of 132 nM.

`O=C(O)COc1ccc(Cl)cc1C1c2ccccc2CCN1C(=O)COc1cncc(Cl)c1` (racemic) [Example 470] yielded an IC50 of 152 nM.

Regarding `O=C(O)COc1ccc(Cl)cc1C1c2ccccc2CCN1C(=O)COc1cccnc1Cl` (racemic) [Example 471], the IC50 was determined as 87.6 nM.

Turning to `O=C(O)COc1ccc(Cl)cc1C1c2ccccc2CCN1C(=O)COc1ccc(Cl)nc1` (racemic) [Example 472], the IC50 was 109 nM.

As to `O=C(O)COc1ccc(Cl)cc1C1c2ccccc2CCN1C(=O)COc1cc(Cl)nc(Cl)c1` (racemic) [Example 473], the IC50 came to 650 nM.

Take `Cc1cncc(OCC(=O)N2CCc3ccccc3C2c2cc(Cl)ccc2OCC(=O)O)c1` (racemic) [Example 474]: the IC50 was determined as 198 nM.

The compound `O=C(O)COc1ccc(Cl)cc1C1c2ccccc2CCN1C(=O)COc1cccnc1OCCO` (racemic) [Example 475] displayed an IC50 of 337 nM.

`COc1ccc(OCC(=O)N2CCc3ccccc3C2c2cc(Cl)ccc2OCC(=O)O)c(OC)n1` (racemic) [Example 476] displayed an IC50 of 164 nM.

In the case of `COc1cncc(OCC(=O)N2CCc3ccccc3C2c2cc(Cl)ccc2OCC(=O)O)c1` (racemic) [Example 477], the IC50 came out at 288 nM.

Take `O=C(O)COc1ccc(Cl)cc1C1c2ccccc2CCN1C(=O)COc1cncc(F)c1` (racemic) [Example 478]: the IC50 came out at 232 nM.

`NC(=O)c1ncccc1OCC(=O)N1CCc2ccccc2C1c1cc(Cl)ccc1OCC(=O)O` (racemic) [Example 479] gave a 50% inhibitory concentration (IC50) of 199 nM.

The record behind these values is patent publication US8575158B2, “1-phenyl-substituted heterocyclyl derivatives and their use as prostaglandin D2 receptor modulators” (Actelion Pharmaceuticals Ltd., priority 2010, dated 2013).
